Results on four compounds are retold here after patent US10100011B2, “Pentadienoyl piperidine derivative and use thereof” (Industry-Academic Cooperation Foundation, Yonsei University, priority 2014, dated 2018).

One assay deals with C57BL/6J mice. Description: Body weight and visceral fat weight in mice fed high-fat diet. In kind it is in vivo, mouse. As to conditions: high-fat diet with about 0.05% compound (sibutramine about 0.01%), 10 weeks. How it is done: An obesity induction diet used in this experiment was a high-fat diet (HFD: 40% fat calories, 17 g of lard+3% corn oil/100 g diet), and the compositions of diets including the LJ-2501, LJ-2488, LJ-2495, LJ-2496 compounds were identical to that of HFD, except that each of the compounds was included in an amount of about 0.05% (Table 2). As a control drug, an anti-obesity drug, sibutramine (Sibut), was added in an amount of about 0.01% to the high-fat diet and a normal diet group (Chow) was fed with commercial rodent chow.
5-week old 40 male C57BL/6J mice (Orient Bio., Korea) were fed with hard feed and accommodated in a laboratory environment for one week. Subsequently, in accordance with a randomized block method, the mice were randomly grouped into a normal diet group, a high-fat diet control group, two experimental substance groups, and […] and raised for a total of 10 weeks (n=8/group). Diets were supplied with water between 10 am and 11 am every day. An intake amount was measured every day and the body weights of the mice were measured every week. To prevent temporal weight change due to feed intake, feedboxes were removed and, after two hours, the body weights were measured. The experimental animals were fasted for 12 hours or more and then anesthetized with diethyl ether, followed by collecting blood, liver, and visceral adipose tissues (epididymal fat, perirenal fat, mesenteric fat, and retroperitoneal fat). The collected samples were washed with 0.1 M phosphate buffered saline (pH 7.4) and then weighed. Blood samples collected from abdominal aortas were centrifuged at 1000×g for 15 minutes, thereby separating plasma.

The subject of the next assay is 3T3L1 cells. Description: Adipocyte differentiation inhibition in preadipocytes (Oil-red O staining). Format: cell-based, mouse. As to conditions: for adipocyte differentiation inhibition effect (in words): different concentrations. How it is done: Preadipocytes, 3T3L1 cells, were aliquoted into a 12-well plate and cultured in a DMEM medium containing 1% penicillin-streptomycin, 1% nonessential amino acid, and 10% fetal bovine serum (FBS) in a 5% CO2 incubator at 37° C. until confluence. The 3T3L1 cells grown to confluence were cultured for two days in a medium containing 0.5 mM isobutyl-methylxanthine, 1 μM dexamethasone (MDI), and 1 μg/ml insulin, thereby being differentiated into adipocytes. Subsequently, the differentiated adipocytes were further cultured for two days in a DMEM medium including 1 μg/ml insulin, thereby being differentiated into mature adipocytes. Subsequently, the differentiated mature adipocytes were further cultured for 10 days while replacing a used DMEM medium with a new DMEM medium every two days. As a result, completely differentiated adipocytes were formed.
3T3-L1 cells were treated with each of a total of four novel compound types at different concentrations every two days from the first day of cell differentiation induction by addition of DMI. Each of the derivative compounds was dissolved in DMSO and then used. A negative control group including only DMSO was included in this experiment. Cell culture was carried out for 14 days. When differentiation was completed, a medium was removed and lipid droplets contained in differentiated adipocytes were stained. To stain the lipid droplets, cells were washed with phosphate buffered saline (PBS) twice and then fixed with 10% buffered neutral formalin for one hour, followed by washing with PBS once. Subsequently, 1 ml of Oil-red-O dye for staining lipid droplets red was fed into a 12-well plate and lipid droplets were stained for one hour, followed by washing with distilled water twice. To measure the concentration of neutral fat contained in the differentiated 3T3L1 cells, the stained lipid droplets were dissolved in 1 ml of isobutanol, followed by measuring an O.D value at 600 nm.

As usually defined, the EC50 is the concentration giving half of the maximal effect.

Take `COc1ccc(OC)c(/C=C/C=C/C(=O)N2CCCCC2)c1` [LJ-2488, (2E,4E)-5-(2,5-dimethoxyphenyl)-1-(piperine-1-yl)penta-2,4-diene-1-one]: in the assay with C57BL/6J mice, the “visceral fat reduction effect, change vs HFD (given with minus sign)” value is −6% and the “weight reduction effect, change in cumulative weight gain vs HFD (given with minus sign)” value is −14%. Further, the EC50 with 3T3L1 cells (Mus musculus, 3T3-L1, treated every two days during 14 days differentiation, Oil-red O O.D. 600 nm, read-out: preadipocyte differentiation inhibition effect, EC50 value) came to 2800 µM.
For the compound `CCOc1ccc(/C=C/C=C/C(=O)N2CCCCC2)cc1` [LJ-2495, (2E,4E)-5-(4-ethoxyphenyl)-1-(piperine-1-yl)penta-2,4-diene-1-one], in the assay with 3T3L1 cells, the “adipocyte differentiation inhibition effect (in words)” value was “did not exhibit an adipocyte differentiation inhibition effect”.
As to `CCCOc1ccc(/C=C/C=C/C(=O)N2CCCCC2)cc1` [LJ-2496, (2E,4E)-1-(piperine-1-yl)-5-(4-propoxyphenyl)penta-2,4-diene-1-one], the “adipocyte differentiation inhibition effect (in words)” value in the assay on 3T3L1 cells is “did not exhibit an adipocyte differentiation inhibition effect”.
Regarding `CC(C)CC(N(C)C)C1(c2ccc(Cl)cc2)CCC1` (stereo not shown) [sibutramine, reference compound], in the assay on C57BL/6J mice, the “visceral fat reduction effect, change vs HFD (given with minus sign)” value is on record as −22% and the “weight reduction effect, change in cumulative weight gain vs HFD (given with minus sign)” value is −33%.
